# Laboratory results as given in PubChem BioAssay (NCI).
#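 Cells were grown in 96-well plates and exposed to each compound for 48 hours at five concentrations; endpoints were interpolated linearly between bracketing concentrations, or set to the highest concentration if not reached. At the GI50, growth is halved. TGI: concentration producing complete growth inhibition.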
# Tests used:
# Test in all cases: DTP human tumour cell line panel, 48 h
# [1] = system: OVCAR-4 ovarian
# [2] = system: SF-539 CNS
# [3] = system: T-47D breast
# [4] = system: SK-MEL-5 melanoma
# [5] = system: CAKI-1 renal
# [6] = system: HS 578T breast
# [7] = system: K-562 leukemia
# [8] = system: MDA-MB-435
# [9] = system: ACHN renal
# [10] = system: NCI-H23 lung
# [11] = system: KM12 colon
# [12] = system: EKVX NSCLC
# [13] = system: OVCAR-5 ovarian
# [14] = system: SK-MEL-28 melanoma
# [15] = system: UACC-257 melanoma
# [16] = system: SW-620 colon
# [17] = system: SNB-75 CNS
# [18] = system: DU-145 prostate
# [19] = system: RPMI-8226 leukemia
# [20] = system: M14 melanoma
# [21] = system: U251 CNS
# [22] = system: NCI-H226 lung
# [23] = system: TK-10 renal
# [24] = system: BT-549 breast
# [25] = system: HOP-62 NSCLC
# [26] = system: NCI-H460 lung
# [27] = system: IGROV1 ovarian
# [28] = system: SNB-19 CNS
# [29] = system: SF-268 CNS
# [30] = system: SK-OV-3 ovarian
# [31] = system: MDA-MB-231 breast
# [32] = system: A498 renal
# [33] = system: MCF7 breast
# [34] = system: UO-31 renal
# [35] = system: HT29 colon
# [36] = system: HCC-2998 colon
# [37] = system: OVCAR-8 ovarian
# [38] = system: HCT-116 colon
# [39] = system: SR leukemia
# [40] = system: SN12C renal
# [41] = system: HOP-92 NSCLC
# [42] = system: NCI/ADR-RES ovarian
# [43] = system: MOLT-4 leukemia
# [44] = system: HCT-15 colon
# [45] = system: SK-MEL-2 melanoma
# [46] = system: RXF 393 renal
# [47] = system: 786-0 renal
# [48] = system: SF-295 CNS
# [49] = system: COLO 205 colon
# [50] = system: HL-60(TB) leukemia
# [51] = system: CCRF-CEM leukemia
# [52] = system: PC-3 prostate
# [53] = system: NCI-H522 lung
# [54] = system: A549 NSCLC
# [55] = system: UACC-62 melanoma
# [56] = system: LOX IMVI melanoma
# [57] = system: OVCAR-3 ovarian
# [58] = system: MALME-3M melanoma
structure (smiles),measurement,setting,value
Nc1nc(CCl)nc(N2CCOCC2)n1,TGI,[1],33.4 µM
same,TGI,[2],51.9 µM
same,TGI,[3],> 100 µM
same,TGI,[4],46.2 µM
same,TGI,[5],30.5 µM
same,TGI,[6],> 100 µM
same,TGI,[7],54.4 µM
same,TGI,[8],> 100 µM
same,TGI,[9],32.5 µM
same,TGI,[10],35.1 µM
same,TGI,[11],> 100 µM
same,TGI,[12],38 µM
same,TGI,[13],47.3 µM
same,TGI,[14],45.9 µM
same,TGI,[15],> 100 µM
same,TGI,[16],60.4 µM
same,TGI,[17],98.6 µM
same,TGI,[18],> 100 µM
same,TGI,[19],> 100 µM
same,TGI,[20],> 100 µM
same,TGI,[21],53.9 µM
same,TGI,[22],> 100 µM
same,TGI,[23],> 100 µM
same,TGI,[24],> 100 µM
same,TGI,[25],44.5 µM
same,TGI,[26],41.1 µM
same,TGI,[27],32.6 µM
same,TGI,[28],> 100 µM
same,TGI,[29],> 100 µM
same,TGI,[30],> 100 µM
same,TGI,[31],78.7 µM
same,TGI,[32],> 100 µM
same,TGI,[33],> 100 µM
same,TGI,[34],31.6 µM
same,TGI,[35],> 100 µM
same,TGI,[36],36.3 µM
same,TGI,[37],> 100 µM
same,TGI,[38],66.1 µM
same,TGI,[39],61.8 µM
same,TGI,[40],> 100 µM
same,TGI,[41],32.2 µM
same,TGI,[42],89.2 µM
same,TGI,[43],> 100 µM
same,TGI,[44],34.9 µM
same,TGI,[45],> 100 µM
same,TGI,[46],> 100 µM
same,TGI,[47],29.2 µM
same,TGI,[48],> 100 µM
same,TGI,[49],32.5 µM
same,TGI,[50],35.6 µM
same,TGI,[51],45.7 µM
same,TGI,[52],> 100 µM
same,TGI,[53],11.1 µM
same,TGI,[54],> 100 µM
same,TGI,[55],31.4 µM
Oc1ccc(Cl)cc1-c1cc(-c2ccc(Cl)cc2)n[nH]1,GI50,[1],0.322 µM
same,TGI,[1],5.7 µM
same,GI50,[2],3.56 µM
same,TGI,[2],14.7 µM
same,GI50,[3],1.45 µM
same,TGI,[3],7.73 µM
same,GI50,[56],2.02 µM
same,TGI,[56],5.65 µM
same,GI50,[4],1.35 µM
same,TGI,[4],10.2 µM
same,GI50,[5],1.87 µM
same,TGI,[5],11.3 µM
same,GI50,[6],4.13 µM
same,TGI,[6],31.6 µM
same,GI50,[57],1.53 µM
same,TGI,[57],4.59 µM
same,GI50,[8],3.14 µM
same,TGI,[8],14.2 µM
same,GI50,[9],2.45 µM
same,TGI,[9],9.23 µM
same,GI50,[10],2.03 µM
same,TGI,[10],6.26 µM
same,GI50,[11],1.69 µM
same,TGI,[11],6.21 µM
same,GI50,[13],9.55 µM
same,TGI,[13],36.5 µM
same,GI50,[14],4.46 µM
same,TGI,[14],21.2 µM
same,GI50,[15],9.92 µM
same,TGI,[15],37.7 µM
same,GI50,[16],2.54 µM
same,TGI,[16],11.1 µM
same,GI50,[17],1.44 µM
same,TGI,[17],10.8 µM
same,GI50,[18],3.02 µM
same,TGI,[18],11 µM
same,GI50,[19],2.11 µM
same,TGI,[19],7.39 µM
same,GI50,[20],2.72 µM
same,TGI,[20],11.6 µM
same,GI50,[21],3.2 µM
same,TGI,[21],11.3 µM
same,GI50,[22],2.87 µM
same,TGI,[22],24.1 µM
same,GI50,[23],3.56 µM
same,TGI,[23],12.4 µM
same,GI50,[24],2 µM
same,TGI,[24],9.45 µM
same,GI50,[25],1.6 µM
same,TGI,[25],13.6 µM
same,GI50,[26],2.03 µM
same,TGI,[26],8.15 µM
same,GI50,[27],1.9 µM
same,TGI,[27],15.9 µM
same,GI50,[28],2.59 µM
same,TGI,[28],12.1 µM
same,GI50,[29],2.64 µM
same,TGI,[29],15.1 µM
same,GI50,[30],2.21 µM
same,TGI,[30],13.8 µM
same,GI50,[31],0.624 µM
same,TGI,[31],6.79 µM
same,GI50,[32],10.9 µM
same,TGI,[32],23.9 µM
same,GI50,[33],0.551 µM
same,TGI,[33],5.25 µM
same,GI50,[34],1.38 µM
same,TGI,[34],10.1 µM
same,GI50,[36],1.86 µM
same,TGI,[36],11.5 µM
same,GI50,[37],3.47 µM
same,TGI,[37],14.1 µM
same,GI50,[38],1.57 µM
same,TGI,[38],2.99 µM
same,GI50,[39],0.577 µM
same,TGI,[39],12.3 µM
same,GI50,[40],3.13 µM
same,TGI,[40],15.5 µM
same,GI50,[41],1.18 µM
same,TGI,[41],4.6 µM
same,GI50,[42],2.67 µM
same,TGI,[42],7.92 µM
same,GI50,[43],2.05 µM
same,TGI,[43],19.5 µM
same,GI50,[44],0.349 µM
same,TGI,[44],6.31 µM
same,GI50,[45],11.3 µM
same,TGI,[45],30.1 µM
same,GI50,[46],6.01 µM
same,TGI,[46],20.8 µM
same,GI50,[47],2.51 µM
same,TGI,[47],7.54 µM
same,GI50,[48],3.01 µM
same,TGI,[48],12.8 µM
same,GI50,[49],3.73 µM
same,TGI,[49],15.3 µM
same,GI50,[50],1.81 µM
same,TGI,[50],15.8 µM
same,GI50,[51],1.45 µM
same,TGI,[51],14.5 µM
same,GI50,[52],1.78 µM
same,TGI,[52],8.44 µM
same,GI50,[53],3.26 µM
same,TGI,[53],12.9 µM
same,GI50,[54],2.99 µM
same,TGI,[54],13.9 µM
same,GI50,[55],2.49 µM
same,TGI,[55],10.4 µM
O=c1[nH]c2c3ccncc3cc(-c3cccc(Cl)c3)c2c2cnccc12,GI50,[1],> 100 µM
same,TGI,[1],> 100 µM
same,GI50,[2],19.6 µM
same,TGI,[2],> 100 µM
same,GI50,[3],> 100 µM
same,TGI,[3],> 100 µM
same,GI50,[56],2.04 µM
same,TGI,[56],> 100 µM
same,GI50,[4],> 100 µM
same,TGI,[4],> 100 µM
same,GI50,[5],> 100 µM
same,TGI,[5],> 100 µM
same,GI50,[6],28.8 µM
same,TGI,[6],> 100 µM
same,GI50,[7],> 100 µM
same,TGI,[7],> 100 µM
same,GI50,[57],3.7 µM
same,TGI,[57],> 100 µM
same,GI50,[8],> 100 µM
same,TGI,[8],> 100 µM
same,GI50,[9],1.91 µM
same,TGI,[9],> 100 µM
same,GI50,[10],12.9 µM
same,TGI,[10],> 100 µM
same,GI50,[11],> 100 µM
same,TGI,[11],> 100 µM
same,GI50,[12],> 100 µM
same,TGI,[12],> 100 µM
same,GI50,[13],> 100 µM
same,TGI,[13],> 100 µM
same,GI50,[14],> 100 µM
same,TGI,[14],> 100 µM
same,GI50,[15],> 100 µM
same,TGI,[15],> 100 µM
same,GI50,[16],> 100 µM
same,TGI,[16],> 100 µM
same,GI50,[17],17.7 µM
same,TGI,[17],89.7 µM
same,GI50,[18],> 100 µM
same,TGI,[18],> 100 µM
same,GI50,[19],> 100 µM
same,TGI,[19],> 100 µM
same,GI50,[20],> 100 µM
same,TGI,[20],> 100 µM
same,GI50,[21],4.52 µM
same,TGI,[21],> 100 µM
same,GI50,[22],73.8 µM
same,TGI,[22],> 100 µM
same,GI50,[23],40.2 µM
same,TGI,[23],> 100 µM
same,GI50,[24],7.94 µM
same,TGI,[24],> 100 µM
same,GI50,[25],27.9 µM
same,TGI,[25],91.5 µM
same,GI50,[26],> 100 µM
same,TGI,[26],> 100 µM
same,GI50,[27],72.2 µM
same,TGI,[27],> 100 µM
same,GI50,[28],25.6 µM
same,TGI,[28],> 100 µM
same,GI50,[29],20.8 µM
same,TGI,[29],> 100 µM
same,GI50,[30],24.7 µM
same,TGI,[30],> 100 µM
same,GI50,[31],4.71 µM
same,TGI,[31],> 100 µM
same,GI50,[58],> 100 µM
same,TGI,[58],> 100 µM
same,GI50,[33],> 100 µM
same,TGI,[33],> 100 µM
same,GI50,[34],> 100 µM
same,TGI,[34],> 100 µM
same,GI50,[35],> 100 µM
same,TGI,[35],> 100 µM
same,GI50,[36],> 100 µM
same,TGI,[36],> 100 µM
same,GI50,[37],11.7 µM
same,TGI,[37],> 100 µM
same,GI50,[39],0.442 µM
same,TGI,[39],> 100 µM
same,GI50,[40],84.2 µM
same,TGI,[40],> 100 µM
same,GI50,[41],69.5 µM
same,TGI,[41],> 100 µM
same,GI50,[42],39.9 µM
same,TGI,[42],> 100 µM
same,GI50,[43],> 100 µM
same,TGI,[43],> 100 µM
same,GI50,[44],> 100 µM
same,TGI,[44],> 100 µM
same,GI50,[45],47.9 µM
same,TGI,[45],> 100 µM
same,GI50,[46],0.737 µM
same,TGI,[46],52.3 µM
same,GI50,[47],18.8 µM
same,TGI,[47],79.5 µM
same,GI50,[48],34 µM
same,TGI,[48],> 100 µM
same,GI50,[49],> 100 µM
same,TGI,[49],> 100 µM
same,GI50,[50],> 100 µM
same,TGI,[50],> 100 µM
same,GI50,[51],> 100 µM
same,TGI,[51],> 100 µM
same,GI50,[52],> 100 µM
same,TGI,[52],> 100 µM
same,GI50,[53],30.4 µM
same,TGI,[53],> 100 µM
same,GI50,[54],> 100 µM
same,TGI,[54],> 100 µM
same,GI50,[55],44.3 µM
same,TGI,[55],> 100 µM
